Measured values as given in article PMC7669905, “A cellulose synthase-derived enzyme catalyses 3-O-glucuronosylation in saponin biosynthesis” (Nature Communications, 2020).

Columns and labels:
Format in all cases: cell-based
[1] = target: T1, GmCSyGT3 (Glycine max, UniProt A0A7I6P8J7); experiment: yeast feeding assay, LC-MS of monoglucuronide; settings: 10 µM substrate fed to yeast with co-expressed UGD
T1 construct: full-length cDNA, membrane protein, expressed in S. cerevisiae with A. thaliana UGD
T1 sequence (A0A7I6P8J7 1-696): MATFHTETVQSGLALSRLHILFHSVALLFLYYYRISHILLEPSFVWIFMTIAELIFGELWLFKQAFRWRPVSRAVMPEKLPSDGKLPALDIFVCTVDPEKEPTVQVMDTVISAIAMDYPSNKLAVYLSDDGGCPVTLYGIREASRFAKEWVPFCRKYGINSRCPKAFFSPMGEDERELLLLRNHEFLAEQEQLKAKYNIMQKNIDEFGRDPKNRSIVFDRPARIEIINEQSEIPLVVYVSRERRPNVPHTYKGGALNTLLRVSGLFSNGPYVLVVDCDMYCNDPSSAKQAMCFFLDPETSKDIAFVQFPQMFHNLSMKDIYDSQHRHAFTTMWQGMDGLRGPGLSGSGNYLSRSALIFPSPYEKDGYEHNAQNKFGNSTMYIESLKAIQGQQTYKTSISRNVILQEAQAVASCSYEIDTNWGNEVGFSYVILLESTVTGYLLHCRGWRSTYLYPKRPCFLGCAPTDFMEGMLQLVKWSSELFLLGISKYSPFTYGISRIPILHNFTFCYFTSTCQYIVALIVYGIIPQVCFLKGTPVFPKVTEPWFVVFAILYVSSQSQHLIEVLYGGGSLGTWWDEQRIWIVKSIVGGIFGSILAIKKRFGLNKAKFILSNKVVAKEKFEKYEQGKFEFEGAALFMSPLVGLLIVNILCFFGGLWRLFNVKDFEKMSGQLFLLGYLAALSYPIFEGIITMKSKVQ

[2] = target: T2, GuCSyGT (Glycyrrhiza uralensis, UniProt A0A7I6P8N6); experiment: in vivo yeast assay, LC-MS of products with and without UGD; settings: sugar donor; acceptor glycyrrhetinic acid
T2 construct: full-length cDNA, ER membrane protein, expressed in S. cerevisiae with A. thaliana UGD
T2 sequence (A0A7I6P8N6 1-695): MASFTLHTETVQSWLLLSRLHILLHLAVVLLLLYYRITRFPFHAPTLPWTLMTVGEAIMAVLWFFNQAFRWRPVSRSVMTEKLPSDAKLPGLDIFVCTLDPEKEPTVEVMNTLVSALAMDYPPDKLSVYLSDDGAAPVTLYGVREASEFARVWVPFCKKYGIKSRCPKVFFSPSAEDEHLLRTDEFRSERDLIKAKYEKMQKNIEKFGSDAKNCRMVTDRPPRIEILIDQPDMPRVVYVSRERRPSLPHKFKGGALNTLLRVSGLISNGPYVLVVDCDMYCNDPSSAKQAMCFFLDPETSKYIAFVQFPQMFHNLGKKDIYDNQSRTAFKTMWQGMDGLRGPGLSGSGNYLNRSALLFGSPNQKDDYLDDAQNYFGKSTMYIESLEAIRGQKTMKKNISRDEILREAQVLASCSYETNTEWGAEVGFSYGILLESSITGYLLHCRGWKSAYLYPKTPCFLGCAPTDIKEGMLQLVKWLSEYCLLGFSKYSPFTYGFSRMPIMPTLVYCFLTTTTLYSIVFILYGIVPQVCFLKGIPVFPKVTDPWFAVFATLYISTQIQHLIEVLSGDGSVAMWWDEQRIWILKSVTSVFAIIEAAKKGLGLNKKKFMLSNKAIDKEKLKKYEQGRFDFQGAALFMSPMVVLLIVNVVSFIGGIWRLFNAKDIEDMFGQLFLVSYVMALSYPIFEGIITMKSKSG

[3] = target: T3, GmCSyGT1 (Glycine max, UniProt A0A7I6PD81); experiment: in vivo yeast assay, LC-MS of monoglucuronide; settings: yeast strain with co-expressed UGD; endogenous UDP-glucuronic acid; 30 °C, 5 days
T3 construct: full-length cDNA, membrane protein, expressed in S. cerevisiae with A. thaliana UGD
T3 sequence (A0A7I6PD81 1-699): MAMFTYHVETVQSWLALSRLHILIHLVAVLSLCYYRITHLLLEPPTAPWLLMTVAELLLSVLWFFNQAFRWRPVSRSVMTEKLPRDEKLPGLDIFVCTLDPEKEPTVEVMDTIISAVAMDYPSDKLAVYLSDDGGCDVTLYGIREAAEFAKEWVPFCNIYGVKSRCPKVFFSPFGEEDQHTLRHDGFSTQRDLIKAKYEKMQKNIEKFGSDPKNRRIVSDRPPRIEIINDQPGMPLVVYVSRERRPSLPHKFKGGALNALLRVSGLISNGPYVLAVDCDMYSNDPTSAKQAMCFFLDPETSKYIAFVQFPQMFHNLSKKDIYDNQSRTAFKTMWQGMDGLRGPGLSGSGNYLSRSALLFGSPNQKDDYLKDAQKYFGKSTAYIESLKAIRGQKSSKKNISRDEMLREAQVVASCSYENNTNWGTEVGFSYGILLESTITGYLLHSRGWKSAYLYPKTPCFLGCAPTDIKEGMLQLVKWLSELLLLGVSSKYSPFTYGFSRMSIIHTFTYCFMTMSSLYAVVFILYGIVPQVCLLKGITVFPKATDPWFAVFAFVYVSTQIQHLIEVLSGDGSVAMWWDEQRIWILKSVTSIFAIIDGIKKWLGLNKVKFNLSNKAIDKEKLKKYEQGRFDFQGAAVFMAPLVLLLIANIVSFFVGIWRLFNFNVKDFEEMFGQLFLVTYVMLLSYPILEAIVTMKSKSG

[4] = target: T2, GuCSyGT; experiment: in vivo yeast assay, LC-MS of monoglucuronide; settings: yeast strain with co-expressed UGD; endogenous UDP-glucuronic acid; 30 °C, 5 days
[5] = target: T4, LjCSyGT (Lotus japonicus, UniProt A0A7I6P8A1); experiment: in vivo yeast assay, LC-MS of monoglucuronide; settings: yeast strain with co-expressed UGD; endogenous UDP-glucuronic acid; 30 °C, 5 days
T4 construct: cDNA clone, ER membrane protein, expressed in S. cerevisiae with A. thaliana UGD
T4 sequence (A0A7I6P8A1 1-694): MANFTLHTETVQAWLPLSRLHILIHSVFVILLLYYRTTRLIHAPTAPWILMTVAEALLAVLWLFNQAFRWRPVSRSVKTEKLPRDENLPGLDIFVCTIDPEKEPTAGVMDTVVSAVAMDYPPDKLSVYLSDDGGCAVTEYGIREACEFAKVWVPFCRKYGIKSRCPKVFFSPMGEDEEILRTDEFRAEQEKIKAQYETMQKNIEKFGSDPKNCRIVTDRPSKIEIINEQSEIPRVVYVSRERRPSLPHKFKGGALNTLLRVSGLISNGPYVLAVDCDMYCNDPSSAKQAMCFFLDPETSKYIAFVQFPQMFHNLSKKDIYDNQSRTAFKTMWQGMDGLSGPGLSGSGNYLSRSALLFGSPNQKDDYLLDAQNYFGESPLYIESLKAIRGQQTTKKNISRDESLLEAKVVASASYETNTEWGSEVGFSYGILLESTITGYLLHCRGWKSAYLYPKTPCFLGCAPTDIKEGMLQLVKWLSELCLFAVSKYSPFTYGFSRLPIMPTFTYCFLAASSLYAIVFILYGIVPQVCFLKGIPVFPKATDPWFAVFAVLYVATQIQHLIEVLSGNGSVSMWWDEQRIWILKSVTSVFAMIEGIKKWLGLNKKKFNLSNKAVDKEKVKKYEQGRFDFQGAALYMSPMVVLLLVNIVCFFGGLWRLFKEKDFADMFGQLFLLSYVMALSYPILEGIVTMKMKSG

[6] = target: T5, GuUGT73F13 (Glycyrrhiza uralensis, UniProt A0A6S4QPQ3); experiment: in vivo yeast assay, LC-MS of 3-O-monoglucoside; settings: glycyrrhetinic acid-producing yeast strain with UGD; donor endogenous UDP-glucose
T5 construct: gene UGT73F13; cDNA clone expressed in S. cerevisiae with A. thaliana UGD
T5 sequence (A0A6S4QPQ3 1-477): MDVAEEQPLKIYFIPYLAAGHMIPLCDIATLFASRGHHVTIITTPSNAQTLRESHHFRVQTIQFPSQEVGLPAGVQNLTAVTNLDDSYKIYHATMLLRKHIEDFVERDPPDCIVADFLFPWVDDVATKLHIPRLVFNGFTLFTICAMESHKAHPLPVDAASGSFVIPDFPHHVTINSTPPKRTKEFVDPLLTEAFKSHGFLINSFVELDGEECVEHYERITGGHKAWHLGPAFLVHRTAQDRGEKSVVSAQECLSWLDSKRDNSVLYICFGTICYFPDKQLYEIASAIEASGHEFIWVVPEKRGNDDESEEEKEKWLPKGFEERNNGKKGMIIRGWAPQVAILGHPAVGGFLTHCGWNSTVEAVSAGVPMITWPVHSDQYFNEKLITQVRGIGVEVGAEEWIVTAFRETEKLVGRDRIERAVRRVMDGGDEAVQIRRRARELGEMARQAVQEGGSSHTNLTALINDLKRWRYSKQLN

[7] = target: T6, UGT73P12 (Glycyrrhiza uralensis, UniProt A0A5A4WN00); experiment: de novo pathway in yeast, LC-MS of glycyrrhizin; settings: donor endogenous UDP-glucuronic acid (UGD); acceptor made in situ by CSyGT
T6 construct: expressed in S. cerevisiae in the reconstructed glycyrrhizin pathway (strain GL)
T6 sequence (A0A5A4WN00 1-506): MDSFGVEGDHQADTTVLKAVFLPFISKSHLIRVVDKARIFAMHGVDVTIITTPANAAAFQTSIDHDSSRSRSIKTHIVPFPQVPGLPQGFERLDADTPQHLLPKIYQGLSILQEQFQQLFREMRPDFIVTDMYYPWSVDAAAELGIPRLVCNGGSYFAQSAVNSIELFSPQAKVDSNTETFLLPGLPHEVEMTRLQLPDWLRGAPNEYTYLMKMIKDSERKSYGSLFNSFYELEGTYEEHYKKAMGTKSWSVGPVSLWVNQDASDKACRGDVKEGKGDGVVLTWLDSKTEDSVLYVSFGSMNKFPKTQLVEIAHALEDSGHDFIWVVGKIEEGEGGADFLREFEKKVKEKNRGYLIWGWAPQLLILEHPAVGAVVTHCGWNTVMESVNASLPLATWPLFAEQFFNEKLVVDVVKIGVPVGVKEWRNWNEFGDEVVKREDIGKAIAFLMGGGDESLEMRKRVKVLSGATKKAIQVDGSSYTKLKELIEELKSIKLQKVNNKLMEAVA

Row | SMILES | yeast feeding assay, LC-MS of monoglucuronide [1] | in vivo yeast assay, LC-MS of monoglucuronide [3] | in vivo yeast assay, LC-MS of monoglucuronide [5] | also measured
1 | C=C(C)[C@@H]1CC[C@]2(C(=O)O)CC[C@]3(C)[C@H](CC[C@@H]4[C@@]5(C)CC[C@H](O)C(C)(C)[C@@H]5CC[C@]43C)[C@@H]12 [betulinic acid] | GmCSyGT3 showed catalytic activity against the triterpenoid aglycones, ursolic acid and betulinic acid | – | – | –
2 | O=C(O)[C@H]1O[C@H](OP(=O)(O)OP(=O)(O)OC[C@H]2O[C@@H](n3ccc(=O)[nH]c3=O)[C@H](O)[C@@H]2O)[C@H](O)[C@@H](O)[C@@H]1O [UDP-glucuronic acid] | – | – | – | in vivo yeast assay, LC-MS of products with and without UGD [2]: GuCSyGT preferentially selects UDP-glucuronic acid as the sugar donor
3 | C[C@H]1[C@H](C)CC[C@]2(C(=O)O)CC[C@]3(C)C(=CC[C@@H]4[C@@]5(C)CC[C@H](O)C(C)(C)[C@@H]5CC[C@]43C)[C@H]12 [ursolic acid] | GmCSyGT3 showed catalytic activity against the triterpenoid aglycones, ursolic acid and betulinic acid | – | – | –
4 | CC1(C)[C@@H](O)CC[C@]2(C)[C@H]3C(=O)C=C4[C@@H]5C[C@@](C)(C(=O)O)CC[C@]5(C)CC[C@@]4(C)[C@]3(C)CC[C@@H]12 [GA, glycyrrhetinic acid] | – | All of the CSyGT-expressing strains produced the corresponding monoglucuronides | The low catalytic activity of LjCSyGT for glycyrrhetinic and oleanolic acids | in vivo yeast assay, LC-MS of monoglucuronide [4]: All of the CSyGT-expressing strains produced the corresponding monoglucuronides; in vivo yeast assay, LC-MS of 3-O-monoglucoside [6]: GuUGT73F13, which catalyses 3-O-glucosylation of glycyrrhetinic acid
5 | CC1(C)[C@@H](O[C@@H]2O[C@H](C(=O)O)[C@@H](O)[C@H](O)[C@H]2O)CC[C@]2(C)[C@H]3C(=O)C=C4[C@@H]5C[C@@](C)(C(=O)O)CC[C@]5(C)CC[C@@]4(C)[C@]3(C)CC[C@@H]12 [GA–GlcA, glycyrrhetinic acid-3-O-monoglucuronide] | – | – | – | de novo pathway in yeast, LC-MS of glycyrrhizin [7]: Since the product is quickly converted into glycyrrhizin in GL strains
6 | CC1(C)C[C@@H](O)[C@]2(C)CC[C@]3(C)C(=CC[C@@H]4[C@@]5(C)CC[C@H](O)[C@](C)(CO)[C@@H]5CC[C@]43C)[C@@H]2C1 [soyasapogenol B] | – | all three had similar levels of catalytic activity for soyasapogenol B | all three had similar levels of catalytic activity for soyasapogenol B | –
